We go through one molecule from patent publication US20250186463A1, “ABIRATERONE DECANOATE PRODRUGS AND USE IN THERAPY” (PROPELLA THERAPEUTICS, INC., priority 2022, published 2025).

For data set [1], the system named is mineralocorticoids, progesterone and pregnenolone. The settings on record: cited from earlier work.
A short description of data set [2]: IM injection of abiraterone acetate formulations in rats. It counts as in vivo. The settings on record: vegetable oil solution versus aqueous suspension. The method, then:
Typically, the abiraterone prodrugs of the present disclosure are formulated as a non-aqueous solution or suspension. In some embodiments, the non-aqueous solution or suspension provides higher levels of abiraterone in the plasma for a longer duration, when compared to an aqueous solution or suspension. For example, as detailed herein, IM injections of an aqueous suspension and a vegetable oil solution of the abiraterone acetate prodrug were evaluated in rats. […] Accordingly, in some embodiments, the abiraterone prodrug formulations herein can include an abiraterone prodrug of the present disclosure (e.g., compound of Formula I or II) dissolved or dispersed in a pharmaceutically acceptable carrier. In some embodiments, the pharmaceutically acceptable carrier can be any suitable nonaqueous vehicle suitable for injection, such as those described in U.S. Pharmacopeia. In some embodiments, the pharmaceutically acceptable carrier can be a pharmaceutically acceptable oil, e.g., a vegetable oil, castor oil, corn oil, sesame oil, cottonseed oil, peanut oil, poppy seed oil, tea seed oil, or soybean oil. In some embodiments, the pharmaceutically acceptable oil can be oils (e.g., described herein), suitable for use as vehicles for injection, e.g., meeting the criteria as described in the corresponding U.S. Pharmacopeia monograph. […]

In the case of `CC(=O)O[C@H]1CC[C@@]2(C)C(=CC[C@@H]3[C@@H]2CC[C@]2(C)C(c4cccnc4)=CC[C@@H]32)C1` [abiraterone acetate, (3)-17-(3-Pyridyl)androsta-5, acetate], in data set [1] (oral administration), the “increases in concentrations of mineralocorticoids” value was 80 fold; the “men with signs and symptoms of mineralocorticoid excess (hypertension, hypokalemia, edema)” value was 30%. For the same molecule, in data set [1] (oral regimen), the “increases in progesterone and pregnenolone” value is 40 fold. Further, the “blood plasma levels and duration of exposure of abiraterone” value in data set [2] is “highest blood plasma levels and the longest duration of exposure”.
